Molecular target: T1, Phospho-N-acetylmuramoyl-pentapeptide-transferase (Bacillus subtilis (strain 168), UniProt Q03521)
T1 sequence (Q03521 whole entry): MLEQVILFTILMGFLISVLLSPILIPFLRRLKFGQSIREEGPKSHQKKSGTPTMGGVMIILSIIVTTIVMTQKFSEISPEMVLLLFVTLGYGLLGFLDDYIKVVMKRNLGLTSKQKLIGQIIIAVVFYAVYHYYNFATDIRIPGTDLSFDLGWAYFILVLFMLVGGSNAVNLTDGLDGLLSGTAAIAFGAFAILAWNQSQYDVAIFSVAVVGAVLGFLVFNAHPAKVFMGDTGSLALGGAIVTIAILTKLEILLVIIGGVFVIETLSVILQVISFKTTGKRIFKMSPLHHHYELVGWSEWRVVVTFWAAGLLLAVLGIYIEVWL
Assay: Inhibition of Bacillus subtilis MraY

IC50: 400 nM
SMILES: NC[C@H]1O[C@@H](O[C@@H](Cn2cc(CCCCCO)nn2)[C@H]2O[C@@H](n3ccc(=O)[nH]c3=O)[C@H](O)[C@@H]2O)[C@H](O)[C@@H]1O
